We go through eleven compounds from patent US11981658B2, “Substituted aminopyridine compounds as EGFR inhibitors” (YUHAN CORPORATION, priority 2021, dated 2024).

In assay [1] the target is EGFR Del19/C797S (Homo sapiens, UniProt P00533, C797S/DEL746-750). Put plainly: Biochemical EGFR kinase inhibition assay (Lance Ultra TR-FRET), double mutant del19/C797S. In short, it runs like this: (§1)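 Step 1: compound in kinase buffer, 0.003–10 μM. Step 2: kinase reaction 1 h at room temperature. Step 4: TR-FRET read at 615/665 nm; IC50 calculated.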
EGFR Del19/C797S, sequence (P00533 with tags, fused parts or gaps DEL746-750/C797S): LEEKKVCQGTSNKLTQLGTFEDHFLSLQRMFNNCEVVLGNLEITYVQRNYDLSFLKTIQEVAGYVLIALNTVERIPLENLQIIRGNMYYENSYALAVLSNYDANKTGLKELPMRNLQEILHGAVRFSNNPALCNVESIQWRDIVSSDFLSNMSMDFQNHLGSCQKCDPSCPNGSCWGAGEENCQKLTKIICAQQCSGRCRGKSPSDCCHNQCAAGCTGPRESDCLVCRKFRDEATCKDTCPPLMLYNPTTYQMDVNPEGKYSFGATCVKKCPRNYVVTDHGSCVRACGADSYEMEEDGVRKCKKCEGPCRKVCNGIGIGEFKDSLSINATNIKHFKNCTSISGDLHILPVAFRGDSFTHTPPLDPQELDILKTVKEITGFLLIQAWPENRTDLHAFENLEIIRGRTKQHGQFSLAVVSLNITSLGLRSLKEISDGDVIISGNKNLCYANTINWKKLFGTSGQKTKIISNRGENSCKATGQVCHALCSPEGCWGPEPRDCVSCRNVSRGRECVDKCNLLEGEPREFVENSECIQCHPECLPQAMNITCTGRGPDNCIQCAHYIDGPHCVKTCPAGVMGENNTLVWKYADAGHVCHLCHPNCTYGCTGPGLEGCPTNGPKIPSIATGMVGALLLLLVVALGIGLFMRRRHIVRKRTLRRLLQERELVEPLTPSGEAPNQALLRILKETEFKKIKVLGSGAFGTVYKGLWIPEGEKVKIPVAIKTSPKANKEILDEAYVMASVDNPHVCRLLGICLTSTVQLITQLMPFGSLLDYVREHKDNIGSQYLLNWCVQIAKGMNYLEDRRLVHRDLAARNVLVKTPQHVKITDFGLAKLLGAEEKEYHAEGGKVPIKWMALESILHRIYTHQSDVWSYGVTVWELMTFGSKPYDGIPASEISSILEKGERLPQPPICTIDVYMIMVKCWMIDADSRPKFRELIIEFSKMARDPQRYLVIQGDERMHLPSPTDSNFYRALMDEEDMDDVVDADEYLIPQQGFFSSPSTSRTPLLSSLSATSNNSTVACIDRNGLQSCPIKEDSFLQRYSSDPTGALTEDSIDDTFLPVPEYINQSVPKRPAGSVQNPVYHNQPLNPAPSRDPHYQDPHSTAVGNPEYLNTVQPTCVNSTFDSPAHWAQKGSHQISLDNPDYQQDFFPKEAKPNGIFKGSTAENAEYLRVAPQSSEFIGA
For orientation: Time-resolved FRET reads energy transfer from a long-lived donor to a nearby acceptor.

The target of assay [2] is EGFR L858R/C797S (Homo sapiens, UniProt P00533, C797S/L858R). Put plainly: Biochemical EGFR kinase inhibition assay (Lance Ultra TR-FRET), double mutant L858R/C797S. In outline:
as §1

For assay [3], the target named is EGFR wildtype (WT) (Homo sapiens, UniProt P00533). The assay is described as follows: Biochemical EGFR kinase inhibition assay (Lance Ultra TR-FRET), wildtype. In outline: as §1
EGFR wildtype (WT), sequence (P00533 25-1210): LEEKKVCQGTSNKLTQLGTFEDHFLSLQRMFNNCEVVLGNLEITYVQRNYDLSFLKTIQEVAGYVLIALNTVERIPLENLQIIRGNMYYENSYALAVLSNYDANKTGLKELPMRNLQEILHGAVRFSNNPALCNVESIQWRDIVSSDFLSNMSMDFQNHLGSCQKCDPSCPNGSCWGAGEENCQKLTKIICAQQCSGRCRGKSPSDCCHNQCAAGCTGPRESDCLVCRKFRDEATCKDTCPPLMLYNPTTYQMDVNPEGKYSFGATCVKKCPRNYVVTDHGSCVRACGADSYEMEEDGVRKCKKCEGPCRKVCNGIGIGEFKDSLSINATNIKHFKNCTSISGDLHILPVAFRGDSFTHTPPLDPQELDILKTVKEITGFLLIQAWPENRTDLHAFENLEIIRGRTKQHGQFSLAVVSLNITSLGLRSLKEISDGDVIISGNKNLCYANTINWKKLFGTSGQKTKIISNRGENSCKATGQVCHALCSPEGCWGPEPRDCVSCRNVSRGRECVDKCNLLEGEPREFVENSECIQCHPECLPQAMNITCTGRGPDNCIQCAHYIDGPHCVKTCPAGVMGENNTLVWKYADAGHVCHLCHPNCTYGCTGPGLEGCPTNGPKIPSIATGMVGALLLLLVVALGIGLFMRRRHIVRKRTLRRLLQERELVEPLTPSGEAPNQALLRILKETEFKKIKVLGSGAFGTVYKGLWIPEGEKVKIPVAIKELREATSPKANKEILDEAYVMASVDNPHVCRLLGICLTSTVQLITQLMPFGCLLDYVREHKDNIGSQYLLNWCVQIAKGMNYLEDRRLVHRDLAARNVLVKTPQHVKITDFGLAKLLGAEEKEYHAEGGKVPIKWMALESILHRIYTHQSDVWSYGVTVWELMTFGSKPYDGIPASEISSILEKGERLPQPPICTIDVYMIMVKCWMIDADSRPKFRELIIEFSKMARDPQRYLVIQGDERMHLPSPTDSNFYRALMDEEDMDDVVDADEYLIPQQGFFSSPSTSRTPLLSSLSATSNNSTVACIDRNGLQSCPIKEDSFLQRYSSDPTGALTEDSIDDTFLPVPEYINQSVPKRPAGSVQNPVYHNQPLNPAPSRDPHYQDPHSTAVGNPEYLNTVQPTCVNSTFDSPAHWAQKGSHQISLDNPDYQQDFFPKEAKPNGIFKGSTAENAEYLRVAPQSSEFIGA
For assay [4], the target named is EGFR L858R/T790M/C797S (Homo sapiens, UniProt P00533, C797S/L858R/T790M). The assay is described as follows: Biochemical EGFR kinase inhibition assay (Lance Ultra TR-FRET), triple mutant L858R/T790M/C797S. In outline: as §1
EGFR L858R/T790M/C797S, sequence (P00533 25-1210 T790M/C797S/L858R): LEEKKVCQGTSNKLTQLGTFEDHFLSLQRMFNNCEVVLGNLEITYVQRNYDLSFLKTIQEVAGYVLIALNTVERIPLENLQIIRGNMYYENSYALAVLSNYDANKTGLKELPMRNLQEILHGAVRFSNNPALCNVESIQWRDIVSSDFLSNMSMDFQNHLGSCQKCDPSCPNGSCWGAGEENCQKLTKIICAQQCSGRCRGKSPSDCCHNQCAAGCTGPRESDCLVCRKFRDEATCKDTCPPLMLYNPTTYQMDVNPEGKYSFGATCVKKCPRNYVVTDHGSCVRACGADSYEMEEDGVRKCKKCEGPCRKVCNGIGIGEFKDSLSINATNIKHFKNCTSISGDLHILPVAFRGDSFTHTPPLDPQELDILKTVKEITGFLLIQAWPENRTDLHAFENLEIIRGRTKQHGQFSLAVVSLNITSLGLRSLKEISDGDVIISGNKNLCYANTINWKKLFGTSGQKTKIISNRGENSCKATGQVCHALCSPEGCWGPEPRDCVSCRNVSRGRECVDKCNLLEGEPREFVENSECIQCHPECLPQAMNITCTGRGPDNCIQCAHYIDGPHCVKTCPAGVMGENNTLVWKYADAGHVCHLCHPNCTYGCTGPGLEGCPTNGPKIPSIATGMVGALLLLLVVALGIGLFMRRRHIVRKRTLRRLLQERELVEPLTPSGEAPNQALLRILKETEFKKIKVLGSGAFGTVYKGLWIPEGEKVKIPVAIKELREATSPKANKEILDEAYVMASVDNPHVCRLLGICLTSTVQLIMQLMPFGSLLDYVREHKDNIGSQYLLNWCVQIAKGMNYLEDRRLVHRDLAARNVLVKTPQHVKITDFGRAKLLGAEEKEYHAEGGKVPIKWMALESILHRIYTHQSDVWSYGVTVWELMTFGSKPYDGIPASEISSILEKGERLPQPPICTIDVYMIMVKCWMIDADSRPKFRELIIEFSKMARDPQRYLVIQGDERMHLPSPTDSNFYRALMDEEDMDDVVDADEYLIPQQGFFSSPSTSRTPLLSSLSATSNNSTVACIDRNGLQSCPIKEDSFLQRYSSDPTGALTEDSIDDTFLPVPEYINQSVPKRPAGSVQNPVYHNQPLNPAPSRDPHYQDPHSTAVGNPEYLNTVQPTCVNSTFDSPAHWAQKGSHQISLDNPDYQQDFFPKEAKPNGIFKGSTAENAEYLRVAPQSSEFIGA
Assay [5] concerns the target EGFR Del19/T790M/C797S (Homo sapiens, UniProt P00533, C797S/DEL746-750/T790M). Put plainly: Biochemical EGFR kinase inhibition assay (Lance Ultra TR-FRET), triple mutant del19/T790M/C797S. In short, it runs like this: as §1
Setting [6] is: IC50 Del19/C797S (nM), 100 μM ATP.
Setting [7] is: Km ATP, read-out: IC50 Del19/C797S (nM), Km ATP.
[8] abbreviates: IC50 L858R/C797S (nM), 100 μM ATP.
Setting [9] is: Km ATP, read-out: IC50 L858R/C797S (nM), Km ATP.
Where [10] appears, read: Km ATP, read-out: IC50 WT (nM), Km ATP.
Setting [11] is: IC50 L858R/T790M/C797S (nM), 100 μM ATP.
[12] abbreviates: Km ATP, read-out: IC50 L858R/T790M/C797S (nM), Km ATP.
The mark [13] stands for this setting: IC50 Del19/T790M/C797S (nM), 100 μM ATP.
[14] abbreviates: Km ATP, read-out: IC50 Del19/T790M/C797S (nM), Km ATP.
[15] abbreviates: ATP at Km, read-out: IC50 Del19/C797S (nM), Km ATP.
Where [16] appears, read: ATP at Km, read-out: IC50 L858R/C797S (nM), Km ATP.
[17] abbreviates: ATP at Km, read-out: IC50 WT (nM), Km ATP.
The mark [18] stands for this setting: ATP at Km, read-out: IC50 L858R/T790M/C797S (nM), Km ATP.
Where [19] appears, read: ATP at Km, read-out: IC50 Del19/T790M/C797S (nM), Km ATP.
Setting [20] is: read-out: IC50 Del19/C797S (nM), 100 μM ATP.
[21] abbreviates: read-out: IC50 L858R/C797S (nM), 100 μM ATP.
Setting [22] is: read-out: IC50 WT (nM), 100 μM ATP.
The mark [23] stands for this setting: read-out: IC50 L858R/T790M/C797S (nM), 100 μM ATP.
Where [24] appears, read: read-out: IC50 Del19/T790M/C797S (nM), 100 μM ATP.
The mark [25] stands for this setting: Km ATP, read-out: IC50 Del19/C797S (nM) Km ATP.
Setting [26] is: Km ATP, read-out: IC50 L858R/C797S (nM) Km ATP.
The mark [27] stands for this setting: Km ATP, read-out: IC50 WT (nM) Km ATP.
[28] abbreviates: Km ATP, read-out: IC50 L858R/T790M/C797S (nM) Km ATP.
[29] abbreviates: Km ATP, read-out: IC50 Del19/T790M/C797S (nM) Km ATP.

The structures appear in SMILES notation. Like-named read-outs stand apart in the source and are kept apart here.

EGFR L858R/C797S, sequence (P00533 25-1210 C797S/L858R): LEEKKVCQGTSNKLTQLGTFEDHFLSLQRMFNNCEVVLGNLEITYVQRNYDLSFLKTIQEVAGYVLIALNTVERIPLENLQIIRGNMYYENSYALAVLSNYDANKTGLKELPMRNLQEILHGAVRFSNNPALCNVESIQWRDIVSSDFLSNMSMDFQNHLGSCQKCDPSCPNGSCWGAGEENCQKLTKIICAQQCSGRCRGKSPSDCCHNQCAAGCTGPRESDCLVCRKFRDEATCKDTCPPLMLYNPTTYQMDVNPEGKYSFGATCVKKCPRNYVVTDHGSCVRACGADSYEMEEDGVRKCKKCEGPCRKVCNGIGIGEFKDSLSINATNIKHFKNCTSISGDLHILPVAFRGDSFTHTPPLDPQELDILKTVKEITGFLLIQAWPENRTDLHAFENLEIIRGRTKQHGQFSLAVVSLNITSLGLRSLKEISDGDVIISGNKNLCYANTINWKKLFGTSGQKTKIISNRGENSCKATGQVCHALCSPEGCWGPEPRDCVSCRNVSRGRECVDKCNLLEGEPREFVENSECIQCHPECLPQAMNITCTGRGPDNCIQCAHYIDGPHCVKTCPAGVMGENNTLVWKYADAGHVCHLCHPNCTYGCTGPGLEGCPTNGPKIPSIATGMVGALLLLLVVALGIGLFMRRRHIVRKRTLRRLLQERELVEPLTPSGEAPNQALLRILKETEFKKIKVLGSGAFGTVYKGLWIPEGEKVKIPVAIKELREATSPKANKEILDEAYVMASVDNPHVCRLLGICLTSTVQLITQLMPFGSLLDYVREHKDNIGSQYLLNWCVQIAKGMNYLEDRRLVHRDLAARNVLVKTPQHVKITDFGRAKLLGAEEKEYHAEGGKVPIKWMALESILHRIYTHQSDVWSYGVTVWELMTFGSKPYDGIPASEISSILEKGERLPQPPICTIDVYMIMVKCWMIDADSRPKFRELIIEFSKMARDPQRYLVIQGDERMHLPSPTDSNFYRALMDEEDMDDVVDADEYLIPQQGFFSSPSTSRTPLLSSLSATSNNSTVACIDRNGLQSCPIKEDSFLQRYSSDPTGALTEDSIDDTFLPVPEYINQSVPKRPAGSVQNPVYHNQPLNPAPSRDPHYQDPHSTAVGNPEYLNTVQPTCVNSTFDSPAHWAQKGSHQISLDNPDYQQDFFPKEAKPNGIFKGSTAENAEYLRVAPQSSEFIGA

Take `CC1(CO)CCN(c2cc(Nc3ccnc(-c4cnn(S(=O)(=O)C5CC5)c4)n3)ncc2C#CC2(O)COC2)CC1` [Example 354, 3-((6-((2-(1-(Cyclopropylsulfonyl)-1H-pyrazol-4-yl)pyrimidin-4-yl)amino)-4-(4-(hydroxymethyl)-4-methylpiperidin-1-yl)pyridin-3-yl)ethynyl)oxetan-3-ol]: the IC50 in assay [1] (setting [6]) came to 0.5 nM; in assay [1] (setting [7]) it was 0.3 nM; in assay [2] (setting [8]), 8.6 nM; in assay [2] (setting [9]), 0.8 nM; in assay [3] (IC50 WT (nM), 100 μM ATP) it was 1630 nM; in assay [3] (setting [10]), 5.1 nM. In addition, the IC50 in assay [4] (setting [11]) turned out to be 0.2 nM; in assay [4] (setting [12]), 0.1 nM; in assay [5] (setting [13]), 0.2 nM; in assay [5] (setting [14]), 0.2 nM.

Turning to `CC1(O)CCN(c2cc(Nc3ccnc(-c4cnn(S(=O)(=O)C5CC5)c4)n3)ncc2C#CC2(F)CCOC2)CC1` (stereo not drawn) [Example 435, 1-(2-((2-(1-(Cyclopropylsulfonyl)-1H-pyrazol-4-yl)pyrimidin-4-yl)amino)-5-((3-fluorotetrahydrofuran-3-yl)ethynyl)pyridin-4-yl)-4-methylpiperidin-4-ol], the IC50 in assay [1] (setting [6]) amounted to 2.9 nM; in assay [1] (setting [7]) it was 1.3 nM; in assay [2] (setting [8]), 66.6 nM; in assay [2] (setting [9]), 2 nM; in assay [3] (IC50 WT (nM), 100 μM ATP), 8720 nM; in assay [3] (setting [10]) it was 14.2 nM. For the same compound, the IC50 in assay [4] (setting [11]) worked out at 0.3 nM; in assay [4] (setting [12]), 0.1 nM; in assay [5] (setting [13]) it was 0.2 nM; in assay [5] (setting [14]) it was 0.2 nM.

On to `O=S(=O)(C1CC1)n1cc(-c2nccc(Nc3cc(NC4CCC(CO)CC4)c(C#Cc4cnn(C5CC5(F)F)c4)cn3)n2)cn1` (stereo not drawn) [Example 327, ((1s,4s)-4-((2-((2-(1-(Cyclopropylsulfonyl)-1H-pyrazol-4-yl)pyrimidin-4-yl)amino)-5-((1-(2,2-difluorocyclopropyl)-1H-pyrazol-4-yl)ethynyl)pyridin-4-yl)amino)cyclohexyl)methanol], for which the IC50 in assay [1] (setting [15]) is 1.6 nM; in assay [1] (setting [6]) it was 4.8 nM; in assay [2] (setting [16]), 2.1 nM; in assay [2] (setting [8]), 39.3 nM; in assay [3] (setting [17]), 11.9 nM; in assay [3] (IC50 WT (nM), 100 μM ATP), greater than 10000 nM. Further, the IC50 in assay [4] (setting [18]) stood at 0.8 nM; in assay [4] (setting [11]), 1.5 nM; in assay [5] (setting [19]), 2.2 nM; in assay [5] (setting [13]), 2.5 nM.

For `CC1(C#Cc2cnc(Nc3ccnc(-c4cnn(S(=O)(=O)C5CC5)c4)n3)cc2N2CCC(C)(CO)CC2)CC1` [Example 358, (1-(2-((2-(1-(Cyclopropylsulfonyl)-1H-pyrazol-4-yl)pyrimidin-4-yl)amino)-5-((1-methylcyclopropyl)ethynyl)pyridin-4-yl)-4-methylpiperidin-4-yl)methanol], the IC50 turned out to be 3.7 nM in assay [1] (setting [6]); 1.9 nM in assay [1] (setting [7]); 30.2 nM in assay [2] (setting [8]); 3.8 nM in assay [2] (setting [9]); 6280 nM in assay [3] (IC50 WT (nM), 100 μM ATP); 22.9 nM in assay [3] (setting [10]). Besides, the IC50 in assay [4] (setting [11]) stood at 1.6 nM; in assay [4] (setting [12]), 0.7 nM; in assay [5] (setting [13]), 1.7 nM; in assay [5] (setting [14]), 1.2 nM.

On to `CC1(C#Cc2cnc(Nc3ccnc(-c4cnn(S(=O)(=O)C5CC5)c4)n3)cc2N2CCC(C)(CO)CC2)CCOCC1` [Example 183, (1-(2-((2-(1-(Cyclopropylsulfonyl)-1H-pyrazol-4-yl)pyrimidin-4-yl)amino)-5-((4-methyltetrahydro-2H-pyran-4-yl)ethynyl)pyridin-4-yl)-4-methylpiperidin-4-yl)methanol], for which the IC50 in assay [1] (setting [15]) is 11.7 nM; in assay [1] (setting [6]) it was 43.9 nM; in assay [2] (setting [16]) it was 26.9 nM; in assay [2] (setting [8]), 400 nM; in assay [3] (setting [17]), 146 nM; in assay [3] (IC50 WT (nM), 100 μM ATP) it was greater than 10000 nM. Also, the IC50 in assay [4] (setting [18]) came out at 0.9 nM; in assay [4] (setting [11]) it was 4.1 nM; in assay [5] (setting [19]) it was 2 nM; in assay [5] (setting [13]), 1.9 nM.

With `Cn1cnc(C#Cc2cnc(Nc3ccnc(-c4cnn(S(=O)(=O)C5CC5)c4)n3)cc2N[C@H]2CC[C@@H](O)CC2)c1` [Example 216, (1s,4s)-4-((2-((2-(1-(Cyclopropylsulfonyl)-1H-pyrazol-4-yl)pyrimidin-4-yl)amino)-5-((1-methyl-1H-imidazol-4-yl)ethynyl)pyridin-4-yl)amino)cyclohexan-1-ol], the IC50 in assay [1] (setting [20]) is 4.9 nM; in assay [2] (setting [21]) it was 28 nM; in assay [3] (setting [22]), greater than 10000 nM; in assay [4] (setting [23]) it was 0.8 nM; in assay [5] (setting [24]), 0.7 nM.

Take `Cn1cc(C#Cc2cnc(Nc3ccnc(-c4cnn(S(=O)(=O)C5CC5)c4)n3)cc2N2CCCC(F)C2)cn1` (stereo not drawn) [Example 70, 2-(1-(Cyclopropylsulfonyl)-1H-pyrazol-4-yl)-N-(4-(3-fluoropiperidin-1-yl)-5-((1-methyl-1H-pyrazol-4-yl)ethynyl)pyridin-2-yl)pyrimidin-4-amine]: the IC50 in assay [1] (setting [6]) was 24.7 nM; in assay [2] (setting [8]), 172 nM; in assay [3] (IC50 WT (nM), 100 μM ATP), greater than 10000 nM; in assay [4] (setting [11]), 10.4 nM; in assay [5] (setting [13]), 1.6 nM.

For the compound `C[C@]1(O)CC[C@@H](Nc2cc(Nc3ccnc(-c4cnn(S(=O)(=O)C5CC5)c4)n3)ncc2C#Cc2ccc(CN3CCOCC3)cc2)CC1` [Example 158, (1s,4s)-4-((2-((2-(1-(Cyclopropylsulfonyl)-1H-pyrazol-4-yl)pyrimidin-4-yl)amino)-5-((4-(morpholinomethyl)phenyl)ethynyl)pyridin-4-yl)amino)-1-methylcyclohexan-1-ol], the IC50 in assay [1] (setting [15]) was 18.3 nM; in assay [1] (setting [20]) it was 131 nM; in assay [2] (setting [16]), 15.3 nM; in assay [2] (setting [21]) it was 809 nM; in assay [3] (setting [17]), 523 nM; in assay [3] (setting [22]), greater than 10000 nM. Moreover, the IC50 was determined as 2.5 nM in assay [4] (setting [18]), 8.4 nM in assay [4] (setting [23]), 6.2 nM in assay [5] (setting [19]) and 6.8 nM in assay [5] (setting [24]).

For the compound `CN(C)CCC1CCN(c2cc(Nc3ccnc(-c4cnn(S(=O)(=O)C5CC5)c4)n3)ncc2C#CC2CCN(C(=O)C(F)(F)F)C2)CC1` (stereo not drawn) [Example 413, 1-(3-((6-((2-(1-(Cyclopropylsulfonyl)-1H-pyrazol-4-yl)pyrimidin-4-yl)amino)-4-(4-(2-(dimethylamino)ethyl)piperidin-1-yl)pyridin-3-yl)ethynyl)pyrrolidin-1-yl)-2,2,2-trifluoroethan-1-one], the IC50 in assay [1] (setting [6]) was found to be 0.8 nM; in assay [2] (setting [8]), 10.3 nM; in assay [3] (IC50 WT (nM), 100 μM ATP), 2910 nM; in assay [4] (setting [11]), 1.4 nM; in assay [5] (setting [13]), 0.1 nM.

As for `CN1CCN(c2cc(Nc3ccnc(-c4cnn(S(=O)(=O)C5CC5)c4)n3)ncc2C#Cc2cnn(C)c2)CC1` [Example 1, 2-(1-(Cyclopropylsulfonyl)-1H-pyrazol-4-yl)-N-(5-((1-methyl-1H-pyrazol-4-yl)ethynyl)-4-(4-methylpiperazin-1-yl)pyridin-2-yl)pyrimidin-4-amine], the IC50 in assay [1] (setting [25]) amounted to 71.3 nM; in assay [2] (setting [26]), 34.6 nM; in assay [3] (setting [27]), 230 nM; in assay [4] (setting [28]), 5.4 nM; in assay [5] (setting [29]), 1.3 nM.

Turning to `CN(C)CCn1cc(C#Cc2cnc(Nc3ccnc(-c4cnn(S(=O)(=O)C5CC5)c4)n3)cc2N2CCC(NCCF)CC2)cn1` [Example 144, 2-(1-(Cyclopropylsulfonyl)-1H-pyrazol-4-yl)-N-(5-((1-(2-(dimethylamino)ethyl)-1H-pyrazol-4-yl)ethynyl)-4-(4-((2-fluoroethyl)amino)piperidin-1-yl)pyridin-2-yl)pyrimidin-4-amine], the IC50 in assay [1] (setting [6]) was 0.9 nM; in assay [1] (setting [25]), 0.8 nM; in assay [2] (setting [8]) it was 34.3 nM; in assay [2] (setting [26]) it was 0.8 nM; in assay [3] (IC50 WT (nM), 100 μM ATP), greater than 10000 nM; in assay [3] (setting [27]) it was 23.8 nM. The IC50 in assay [4] (setting [11]) amounted to 0.4 nM; in assay [4] (setting [28]) it was 0.1 nM; in assay [5] (setting [13]), 0.3 nM; in assay [5] (setting [29]) it was 0.3 nM.
